We go through nine compounds from ChEMBL document CHEMBL1201862, “PubChem BioAssay data set” (2004).

The structures appear in SMILES notation.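 How tested: cells in 96-well plates exposed to compound for 48 hours at five concentrations. GI50 = concentration required for 50% inhibition of growth.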 The source made the active and inactive calls. Rule as the data show it: active = GI50 up to about 1.1 µM and inactive = higher. Bounds are passed on as bounds.

Test systems include OVCAR-3; HCT-116; EKVX; OVCAR-8; U-251; IGROV-1; SR; NCI-H226; OVCAR-4; HL-60; SF-268; TK-10; ACHN; HOP-92; SNB-75; RXF 393; SW-620; A498.
What all share (experiment): inhibition of tumour cell growth, NCI panel, 48 h

Take `Nc1ccc(C(=O)NN2C(=O)C(Cl)C2c2ccccc2Cl)cc1` (stereo unspecified): the GI50 in the experiment on OVCAR-3 was 13.8 µM (inactive); with HCT-116, 4.21 µM (inactive); in the experiment with EKVX, 17.5 µM (inactive); with OVCAR-8, 3.24 µM (inactive); in the experiment on U-251 it was 12.3 µM (inactive); in the experiment with IGROV-1, 13.4 µM (inactive). The GI50 was 5.45 µM (inactive) in the experiment on SR; 16.8 µM (inactive) in the experiment with NCI-H226; 13.8 µM (inactive) in the experiment with OVCAR-4; 1.02 µM (active) in the experiment on HL-60; 3.84 µM (inactive) in the experiment with SF-268; 16.5 µM (inactive) in the experiment with TK-10. The GI50 in the experiment on ACHN was 16.4 µM (inactive); in the experiment with HOP-92 it was 4.48 µM (inactive); in the experiment with SNB-75, 16.5 µM (inactive); with RXF 393 it was 5.48 µM (inactive); with SW-620, 3.46 µM (inactive).
As to `N#Cc1cn(-c2c3ccccc3nc3ccccc23)c(=O)[nH]c1=O`, the GI50 in the experiment with OVCAR-3 was 8.02 µM (inactive); with HCT-116 it was 3.95 µM (inactive); in the experiment on EKVX, 18.2 µM (inactive); in the experiment with OVCAR-8, 4.85 µM (inactive); with U-251, 18 µM (inactive); in the experiment with IGROV-1, 23.3 µM (inactive). Further, the GI50 in the experiment with SR was 3.31 µM (inactive); in the experiment with OVCAR-4, 5.14 µM (inactive); in the experiment with HL-60 it was 10.6 µM (inactive); in the experiment with SF-268 it was 4.74 µM (inactive); with TK-10, 21.5 µM (inactive); in the experiment on ACHN, 4.19 µM (inactive). For the same compound, the GI50 is 7.73 µM (inactive) in the experiment with HOP-92, 16.7 µM (inactive) with SNB-75 and 5.01 µM (inactive) in the experiment with SW-620.
As to `Cc1ccc(S(=O)(=O)c2c3nc4ccccc4nc3n3c2[nH]c2ccccc23)cc1`, the GI50 was 18.7 µM (inactive) in the experiment on A498; > 100 µM (inactive) with OVCAR-3; > 100 µM (inactive) with HCT-116; > 100 µM (inactive) in the experiment with EKVX; > 100 µM (inactive) with OVCAR-8; > 100 µM (inactive) in the experiment on U-251. Further, the GI50 in the experiment with IGROV-1 is 8.13 µM (inactive); with SR it was > 100 µM (inactive); in the experiment on OVCAR-4 it was > 100 µM (inactive); with HL-60, > 100 µM (inactive); in the experiment with SF-268, > 100 µM (inactive); in the experiment on TK-10 it was > 100 µM (inactive). Besides, the GI50 in the experiment on ACHN, with HOP-92, in the experiment on SNB-75 and in the experiment with SW-620 was > 100 µM (inactive) throughout.
As to `C[C@@H](c1ccccc1)N(CC#N)C1CCC[C@H]1O` (stereo partly specified), the GI50 with A498, in the experiment on OVCAR-3, in the experiment with HCT-116, in the experiment with EKVX, with OVCAR-8 and with U-251 was > 100 µM (inactive) throughout. Further, the GI50 with IGROV-1, with NCI-H226, in the experiment on OVCAR-4, in the experiment with HL-60, with SF-268 and in the experiment with TK-10 was > 100 µM (inactive) in each case. Besides, the GI50 in the experiment with ACHN, in the experiment with HOP-92, with SNB-75, with RXF 393 and in the experiment with SW-620 was > 100 µM (inactive) in each case.
With `Cc1ccc(-c2nnc(-c3nn(-c4ccccc4)c4nc5ccccc5nc34)o2)cc1`, the GI50 is 14.1 µM (inactive) in the experiment on OVCAR-3; 12 µM (inactive) in the experiment on HCT-116; 29.9 µM (inactive) in the experiment on EKVX; 10.9 µM (inactive) in the experiment with OVCAR-8; 11.8 µM (inactive) with U-251; 17.6 µM (inactive) with IGROV-1. Besides, the GI50 in the experiment with SR is 9.73 µM (inactive); in the experiment on NCI-H226, 13.2 µM (inactive); in the experiment with OVCAR-4, 3.01 µM (inactive); in the experiment on HL-60 it was 11 µM (inactive); in the experiment with SF-268, 11.1 µM (inactive); in the experiment with TK-10, 14 µM (inactive). In addition, the GI50 in the experiment with ACHN is 14.4 µM (inactive); with HOP-92 it was 7.52 µM (inactive); in the experiment with SNB-75 it was 4.1 µM (inactive); with RXF 393, 6.05 µM (inactive); in the experiment with SW-620, 35.6 µM (inactive).
As for `CC1(C)CC(=O)C/C(=N/c2ccc([N+](=O)[O-])cc2)C1`, the GI50 in the experiment with A498 is > 100 µM (inactive); in the experiment with OVCAR-3, 76.4 µM (inactive); in the experiment on HCT-116, 17.6 µM (inactive); with EKVX, > 100 µM (inactive); with OVCAR-8, > 100 µM (inactive); with U-251, 16.3 µM (inactive). The GI50 in the experiment with IGROV-1 was > 100 µM (inactive); in the experiment on SR, 57 µM (inactive); in the experiment with NCI-H226 it was > 100 µM (inactive); in the experiment with HL-60 it was 80.5 µM (inactive); with SF-268, > 100 µM (inactive); with TK-10, > 100 µM (inactive). In addition, the GI50 with ACHN is > 100 µM (inactive); in the experiment on SNB-75 it was > 100 µM (inactive); with RXF 393, 47.4 µM (inactive).
`CC1(C)OC(=S)N(c2ccccc2)C12C=Cc1cc3ccccc3nc1S2` (stereo unspecified): the GI50 with OVCAR-3, in the experiment on HCT-116, with EKVX, in the experiment on OVCAR-8, in the experiment on U-251 and with IGROV-1 was > 100 µM (inactive) in each case. Moreover, the GI50 in the experiment on SR was 22.4 µM (inactive); with NCI-H226, > 100 µM (inactive); in the experiment on HL-60, 40.9 µM (inactive); in the experiment on SF-268, > 100 µM (inactive); with TK-10 it was > 100 µM (inactive); with ACHN, > 100 µM (inactive). Besides, the GI50 in the experiment with HOP-92 is 40.3 µM (inactive); in the experiment on SNB-75, 97.1 µM (inactive); in the experiment on RXF 393 it was 55.6 µM (inactive); in the experiment with SW-620 it was > 100 µM (inactive).
Consider `COc1cc2c(oc(=O)c3c4occc4cc(OC)c23)c2cccc(O)c12`, for which the GI50 in the experiment on A498, in the experiment with OVCAR-3, in the experiment with HCT-116, with EKVX, in the experiment on OVCAR-8 and in the experiment on U-251 was > 100 µM (inactive) each time. Besides, the GI50 in the experiment with IGROV-1, in the experiment with NCI-H226, in the experiment on OVCAR-4, with HL-60, in the experiment on SF-268 and in the experiment on TK-10 was > 100 µM (inactive) each time. The GI50 with ACHN is > 100 µM (inactive); with HOP-92, > 100 µM (inactive); in the experiment with SNB-75, 83.6 µM (inactive); with RXF 393 it was > 100 µM (inactive); in the experiment with SW-620, > 100 µM (inactive).
For the compound `CNS(=O)(=O)NN(C)S(=O)(=O)c1ccc(OC)cc1`, the GI50 in the experiment with A498, in the experiment with HCT-116, in the experiment with EKVX, in the experiment with OVCAR-8, in the experiment on U-251 and in the experiment with IGROV-1 was > 100 µM (inactive) each time. The GI50 in the experiment on SR, in the experiment with NCI-H226, in the experiment on OVCAR-4, in the experiment on HL-60, in the experiment on SF-268 and with TK-10 was > 100 µM (inactive) each time. The GI50 with ACHN is > 100 µM (inactive); with SNB-75, > 100 µM (inactive); with RXF 393 it was 31 µM (inactive); in the experiment on SW-620 it was > 100 µM (inactive).
